Columns and labels:
mitosis cell cycle = test system: mitosis cell cycle; design: method as in Taylor, 1965; conditions: concentration of 50 nM; ref Taylor, 1965; cited from earlier work
[1] = test system: MDA-MB 231 (breast carcinoma); test: Sulforhodamine B (SRB) assay, MDA-MB 231; format: cell-based; conditions: Homo sapiens, MDA-MB-231, 48 h, read-out: IC50 (µM) MDA-MB 231
Description: (§1) Roswell Park Memorial Institute (RPMI)-1640 medium, Dulbecco’s modified eagle medium high glucose (DMEM; Gibco) supplemented with 10% Fetal Bovine Serum (FBS; Gibco, and 1% antibiotic-antimycotic (Gibco; Anti-Anti 100x), phosphate-buffered saline (PBS; Gibco), 0.25% trypsin (Gibco), sodium pyruvate (Sigma-Aldrich), HEPES (Gibco). Human cancer cell lines A549 (lung carcinoma), MCF-7 (breast carcinoma), MDAMB-231 (breast carcinoma), A375 (melanoma), and normal human embryonic kidney cells (HEK-293) were taken from Dr. Sheikh Tasduq Abdullah and Dr. Boobalan Gopu (CSIR-IIIM).
(§2) Their activity was tested against human cancer cell lines A549 (lung carcinoma), MCF-7 (breast carcinoma), MDAMB-231 (breast carcinoma), and A375 (melanoma). The selectivity index (SI) was calculated against normal human embryonic kidney cells (HEK-293) to determine cytotoxic selectivity. The cells (7 × 10^3 cells/well) were seeded on 96 well plates, followed by overnight incubation. Multiple concentrations (50 µM, 20 µM, 10 µM, 5 µM, and 1 µM) of compounds were used to treat the cells, except for control wells that contained only cells with media. After 48 h of incubation, the cells attached to wells were fixed with 50 µL of chilled 50% TCA, and the plate was kept at 4°C for 1 h, as described previously ([Malik et al., 2023]; [Kumar et al., 2024]). The plate was washed (3–4 times) with distilled water (250 µL/well) and air-dried for 24 h. The next day, 100 µL of 0.4% SRB dye was added to each well, and the cells were incubated at room temperature for 1 h. The plate contents were discarded and washed 3 times with 1% glacial acetic acid (250 µL/well), followed by one last wash with distilled water and air drying for another 24 h. Subsequently, 100 µL of Tris base (10 mM, pH 10.5) was added to each well to dissolve the dye bound to fixed cells. The dissolved dye indicating growth inhibition was quantified by calculating optical density at 540 nm via microplate reader (Tecan infinite M200PRO, Switzerland). The IC50 values were calculated using GraphPad Prism Software Version 5.0. A favorable Selectivity Index (SI) is the most relevant parameter to detect anti-cancer potential in vitro as it indicates drug safety against cancer cells versus normal cells, efficacy of the drug, and selectivity. The selectivity index is calculated by using the formula. Selective Index=IC50 in Normal cells/IC50 in Cancerous cell lines

A375 (melanoma) = test: Sulforhodamine B (SRB) assay, A375; format: cell-based; conditions: Homo sapiens; for IC50: A-375, 48 h, read-out: IC50 (µM) A375
Description: as §1, §2

[2] = test system: normal human embryonic kidney cells (HEK-293); test: Sulforhodamine B (SRB) assay, normal cells HEK-293; format: cell-based; conditions: HEK293, 48 h, normal cell line, mean ± SD (n = 3)
Description: as §1, §2

A549 (lung carcinoma) = test: Sulforhodamine B (SRB) assay, A549; format: cell-based; conditions: Homo sapiens, A549, 48 h, read-out: IC50 (µM) A549
Description: as §1, §2

MCF-7 (breast carcinoma) = test: Sulforhodamine B (SRB) assay, MCF-7; format: cell-based; conditions: Homo sapiens, MCF7, 48 h, read-out: IC50 (µM) MCF-7
Description: as §1, §2

A375 cells [3] = test: Wound healing (cell scratch) assay; format: cell-based, human
Description: Cell scratch assay, also known as wound healing assay, was performed to evaluate the impact of 3g on migration of A375 cells. The cells were seeded into the 6-well plate with […] density. The next day, in fresh media, a horizontal scratch was administered in the 90% confluent monolayer using a sterile 200 µL tip, as described previously, with slight modification ([Kumar et al., 2024]). The cells were incubated for 48 h with multiple concentrations of 3g such as 30 µM, 20 µM, 10 µM and 1 µM. Wound healing was observed using a Digital Inverted Fluorescence Microscope (Life Technologies EVOS FLc). The percentage of wound healing was calculated as. Wound Closure (%)=[…]

A375 cells [4] = test: Colony formation assay; format: cell-based, human
Description: A colony formation assay was performed to assess the ability of 3g to inhibit the reproductive and colony forming ability of A375 cells. The cells were seeded into a 6-well plate with a 1 × 10^3 cells/well density. Next day, the cells were treated with multiple concentrations of 3g, such as 30 µM, 20 µM, 10 µM and 1 µM, in fresh media for 48 h. The media was changed on alternate days till day 10, till untreated (negative control) became confluent. On day 10, the cells were washed with PBS, and colonies were observed under a microscope. The cells/colonies were fixed with 100% methanol for 20 min at 4°C and stained with 0.5% solution of crystal violet for 30 min at room temperature, as described previously ([Kumar et al., 2024]). Subsequently, the dye was removed from plates, and excess dye was rinsed by washing it with distilled water (3–5 times), followed by air drying. The colonies were counted using ImageJ software, and photographs were taken with a digital camera. The percentage of colonies formed was calculated using the formula mentioned below. Colony formation rate (%)=Number of colonies in treatment group/Number of colonies in control group×100

MCF-7 = test: cells; format: cell-based; conditions: Homo sapiens, MCF7; MTT assay, 48 h
Description: (§3) Cell viability was assessed using the MTT assay, as outlined in previous studies ([Majeed et al., 2014]; [Amin et al., 2025]). Briefly, A549, A375, MCF-7 and MDA-MB231 cells (10 × 10^3 cells/well) were seeded in 96-well plates and incubated for 24 h at 37°C in a 5% CO2 atmosphere. After this incubation, the cells were treated with test compounds for another 48 h. At 44th hour of treatment, the cells were incubated with MTT (2.5 mg/mL) for additional 4 h. At 48th hour, DMSO was added (100 µL/well), to dissolve formazan crystals. Absorbance was measured at 570 nm. Cell viability was calculated relative to untreated controls. IC50 values were determined from independent triplicate experiments using GraphPad™ Prism 8.0 software. […]

A375 = test: cells; format: cell-based; conditions: Homo sapiens, A-375; MTT assay, 48 h
Description: as §3

A549 = test: cells; format: cell-based; conditions: Homo sapiens, MTT assay, 48 h
Description: as §3

MDA-MB 231 = test: cells; format: cell-based; conditions: Homo sapiens, MTT assay, 48 h
Description: as §3

Compound	IC50 [1] [µM]	IC50 (A375 (melanoma)) [µM]	IC50 [2] [µM]	IC50 (A549 (lung carcinoma)) [µM]	IC50 (MCF-7 (breast carcinoma)) [µM]	also measured
COc1cc2c(c(OC)c1OC)-c1ccc(OC)c(=O)cc1[C@@H](NC(C)=O)CC2 [Colchicine]						block of mitotic cells (mitosis cell cycle): blocks almost all the prophase, metaphase, and anaphase cells
CCOC(=O)C1=C(C)NC(=S)NC1c1c2c(c(OC)c(OC)c1OC)-c1ccc(OC)c(=O)cc1[C@H](NC(C)=O)CC2 (some centres unmarked) [Compound 3a]	> 50	> 50	29.66 ± 0.07	> 50	40.6 ± 0.91	
CCOC(=O)C1=C(C)NC(=N)NC1c1c2c(c(OC)c(OC)c1OC)-c1ccc(OC)c(=O)cc1[C@H](NC(C)=O)CC2 (stereo partly drawn) [Compound 3b, Ethyl 4-((R)-7-acetamido-1,2,3,10-tetramethoxy-9-oxo-5,6,7,9-tetrahydrobenzo [a]heptalen-4-yl)-2-imino-6-methyl-1,2,3,4-tetrahydropyrimidine-5-carboxylate]	> 50	> 50	38.3 ± 1.36	> 50	44.7 ± 0.64	
COc1c(OC)c2c(c(C3NC(=O)NC(C)=C3C(=O)Oc3ccccc3)c1OC)CC[C@@H](NC(C)=O)c1cc(=O)c(OC)ccc1-2 (stereo partly drawn) [Compound 3c, phenyl 4-((R)-7-acetamido-1,2,3,10-tetramethoxy-9-oxo-5,6,7,9-tetrahydrobenzo [a]heptalen-4-yl)-6-methyl-2-oxo-1,2,3,4-tetrahydropyrimidine-5-carboxylate]	> 50	> 50	35.6 ± 2.97	> 50	44.8 ± 0.68	
CCOC(=O)C1=C(C(Cl)(Cl)Cl)NC(=O)NC1c1c2c(c(OC)c(OC)c1OC)-c1ccc(OC)c(=O)cc1[C@H](NC(C)=O)CC2 (stereo partly drawn) [Compound 3d, Ethyl 4-((R)-7-acetamido-1,2,3,10-tetramethoxy-9-oxo-5,6,7,9-tetrahydrobenzo [a]heptalen-4-yl)-2-oxo-6-(trichloromethyl)-1,2,3,4-tetrahydropyrimidine-5-carboxylate]	> 50	> 50	36.1 ± 1.79	> 50	43.79 ± 0.33	
CCOC(=O)C1=C(c2cc(F)c(Cl)nc2Cl)NC(=O)NC1c1c2c(c(OC)c(OC)c1OC)-c1ccc(OC)c(=O)cc1[C@H](NC(C)=O)CC2 (stereo partly drawn) [Compound 3e, Ethyl 4-((R)-7-acetamido-1,2,3,10-tetramethoxy-9-oxo-5,6,7,9-tetrahydrobenzo [a]heptalen-4-yl)-6-(2,6-dichloro-5-fluoropyridin-3-yl)-2-oxo-1,2,3,4-tetrahydropyrimidine-5-carboxylate]	> 50	> 50	40.3 ± 1.71	> 50	45.1 ± 0.73	
CCOC(=O)C1=C(C(F)(F)C(F)(F)F)NC(=O)NC1c1c2c(c(OC)c(OC)c1OC)-c1ccc(OC)c(=O)cc1[C@H](NC(C)=O)CC2 (stereo partly drawn) [Compound 3f, Ethyl 4-((R)-7-acetamido-1,2,3,10-tetramethoxy-9-oxo-5,6,7,9-tetrahydrobenzo [a]heptalen-4-yl)-2-oxo-6-(perfluoroethyl)-1,2,3,4-tetrahydropyrimidine-5-carboxylate]	46.6 ± 0.86	28.3 ± 2.19	17.8 ± 1.3	> 50	26.4 ± 2.79	
CCOC(=O)C1=C(C(F)(F)C(F)(F)F)NC(=O)NC1c1c2c(c(OC)c(OC)c1OC)-c1ccc(OC)c(=O)cc1[C@@H](NC(C)=O)CC2 (stereo partly drawn) [Compound 3g, Ethyl 4-((S)-7-acetamido-1,2,3,10-tetramethoxy-9-oxo-5,6,7,9-tetrahydrobenzo [a]heptalen-4-yl)-2-oxo-6-(perfluoroethyl)-1,2,3,4-tetrahydropyrimidine-5-carboxylate]	24.9 ± 2.7	10.3 ± 0.56	15.8 ± 0.81	> 50	15.7 ± 0.39	inhibition at 20 µM (A375 (melanoma); A-375, read-out: growth inhibition): 60%; percentage of wound closure (A375 cells [3]; 20 µM, 48 h, A375 cells, untreated control 84%): 69%; reduction of migration potential (A375 cells [3]; melanoma cells (abstract)): 69%; percentage of colony growth formation (A375 cells [4]; 20 µM, 48 h treatment, A375 cells, untreated control 100%): 37.5%; inhibition of colony formation (A375 cells [4]; melanoma cells (abstract)): up to 62.5%
CCOC(=O)C1=C(OCC)NC(=O)NC1c1c2c(c(OC)c(OC)c1OC)-c1ccc(OC)c(=O)cc1[C@H](NC(C)=O)CC2 (stereo partly drawn) [Compound 3h, ethyl 4-((R)-7-acetamido-1,2,3,10-tetramethoxy-9-oxo-5,6,7,9-tetrahydrobenzo [a]heptalen-4-yl)-6-ethoxy-2-oxo-1,2,3,4-tetrahydropyrimidine-5-carboxylate]	> 50	35.2 ± 2.79	26.6 ± 2.65	> 50	49.9 ± 2.72	
COC1=C(C(=O)C2CC2)C(c2c3c(c(OC)c(OC)c2OC)-c2ccc(OC)c(=O)cc2[C@H](NC(C)=O)CC3)NC(=O)N1 (stereo partly drawn) [Compound 3i, N-((7R)-4-(5-(cyclopropanecarbonyl)-6-methoxy-2-oxo-1,2,3,4-tetrahydropyrimidin-4-yl)-1,2,3,10-tetramethoxy-9-oxo-5,6,7,9-tetrahydrobenzo [a]heptalen-7-yl) acetamide]		> 50	39.5 ± 1.36	> 50	> 50	
COC1=C(C(=O)C2CC2)C(c2c3c(c(OC)c(OC)c2OC)-c2ccc(OC)c(=O)cc2[C@@H](NC(C)=O)CC3)NC(=O)N1 (stereo partly drawn) [Compound 3j, N-((7S)-4-(5-(cyclopropanecarbonyl)-6-methoxy-2-oxo-1,2,3,4-tetrahydropyrimidin-4-yl)-1,2,3,10-tetramethoxy-9-oxo-5,6,7,9-tetrahydrobenzo [a]heptalen-7-yl) acetamide]	> 50	> 50	39 ± 0.79	> 50	> 50	
CC(=O)O[C@H]1C(=O)[C@@]2(C)[C@H]([C@H](OC(=O)c3ccccc3)[C@]3(O)C[C@H](OC(=O)[C@H](O)[C@@H](NC(=O)c4ccccc4)c4ccccc4)C(C)=C1C3(C)C)[C@]1(OC(C)=O)CO[C@@H]1C[C@@H]2O [Paclitaxel]						IC50 (MCF-7): 0.014 ± 0.001 µM; IC50 (A375): 0.017 ± 0.028 µM; IC50 (A549): 0.028 ± 0.008 µM; IC50 (MDA-MB 231): 0.02 ± 0.002 µM

From article PMC12246756 (Frontiers in Pharmacology, 2025)
